{"source": "patent EP1306084A1", "about": "“Compositions for the control of parasitic infestations in fish” (Alpharma AS, priority 1998, dated 1999)", "key": {"sea lice [1]": {"tested_on": "sea lice", "test": "Oral treatment in freshwater before sea transfer, sea lice counts after natural infection (Example 4)", "format": "in vivo, salmon (Salmo salar)", "settings": "bath treatment, 7 weeks into the trial", "protocol": "(§1) The treatment dosage was 9 mg hexaflumuron per kg fish per day for 10 days. This is indicated by \"Groups/Timepoints\" in the figure; • Figure 2 relates to the trial in Example 2 that was carried out on Atlantic salmon (Salmo salar). […] The treatment dosage varied between 3 - 9 mg hexaflumuron and 9- 12 mg fluazuron per kg fish per day for 7 days. This is indicated by \"Groups/Timepoints\" in the diagram. […] The treated groups are compared to an untreated control group. The treatment dosage was 4 mg hexaflumuron per kg fish per day for 5 days. This is indicated by \"Groups/Timepoints\" in the figure. Cage 2 = controls, Cage 4-6 = treated groups, 16.6.97 = time point for sea transfer and 5.8.97= controls treated by bathing with deltamethrin; • Figure 4 relates to the trial described in Example 5, which was carried out on sea trout (Salmo trutta). […] The treated groups are compared with an untreated control group. The dosage for oral treatment was 4 mg hexaflumuron per kilo fish per day for 5 days, and 5 ppm hexaflumuron as a 30 minute bath treatment. This is indicated by \"Groups/Timepoints\" in the figure. Cage 1.4 = Controls, cage 1.3 = Oral treatment, cage 1.2 = Bath treatment. […] The treated groups are compared with an untreated control group, and one group that has been treated orally with teflubenzuron (10 mg/kg of teflubenzuron per kg fish per day for 7 days). The dosage for oral treatment was 5.6 mg hexaflumuron per kg fish per day for 7 days, and 5 ppm hexaflumuron as a 30 minute bath treatment. […] End of treatment: 22.10.97, Sea transfer: 23.10.97. […]\nAbout 2,500 salmon (Salmo salar) of average weight 42 grams were treated orally with a daily dosage of 4 mg hexaflumuron per kilo fish for 5 days. […] The number of lice on 10 fish from each cage were counted every third week to check if there was any difference in the number of lice in the cages. […]"}, "sea lice [2]": {"tested_on": "sea lice", "test": "Oral or bath treatment in freshwater before sea transfer, sea lice counts after natural infestation (Example 6)", "format": "in vivo, Atlantic salmon (Salmo salar)", "protocol": "(§2) The treatment dosage was 9 mg hexaflumuron per kg fish per day for 10 days. This is indicated by \"Groups/Timepoints\" in the figure; • Figure 2 relates to the trial in Example 2 that was carried out on Atlantic salmon (Salmo salar). […] The treatment dosage varied between 3 - 9 mg hexaflumuron and 9- 12 mg fluazuron per kg fish per day for 7 days. This is indicated by \"Groups/Timepoints\" in the diagram. […] The treated groups are compared to an untreated control group. The treatment dosage was 4 mg hexaflumuron per kg fish per day for 5 days. This is indicated by \"Groups/Timepoints\" in the figure. Cage 2 = controls, Cage 4-6 = treated groups, 16.6.97 = time point for sea transfer and 5.8.97= controls treated by bathing with deltamethrin; • Figure 4 relates to the trial described in Example 5, which was carried out on sea trout (Salmo trutta). […] The treated groups are compared with an untreated control group. The dosage for oral treatment was 4 mg hexaflumuron per kilo fish per day for 5 days, and 5 ppm hexaflumuron as a 30 minute bath treatment. This is indicated by \"Groups/Timepoints\" in the figure. Cage 1.4 = Controls, cage 1.3 = Oral treatment, cage 1.2 = Bath treatment. […] The treated groups are compared with an untreated control group, and one group that has been treated orally with teflubenzuron (10 mg/kg of teflubenzuron per kg fish per day for 7 days). The dosage for oral treatment was 5.6 mg hexaflumuron per kg fish per day for 7 days, and 5 ppm hexaflumuron as a 30 minute bath treatment. […] End of treatment: 22.10.97, Sea transfer: 23.10.97. T1 = 3 weeks post end of treatment, T2 = 5 weeks post end of treatment, T3 = 9 weeks post end of treatment, T4 = 12 weeks post end of treatment; • Figure 6 relates to the trial in Example 6 at time points 4-6, with the same trial parameters as for Figure 5. T5 = 15 weeks post end of treatment, T6 = 17 weeks post end of treatment. Cage 3 and 4 were treated by bath with deltamethrin after sea lice counting at T4 (12.01.98); • Figure 7 relates to the trial described in Example 7 where salmon were injected on 17.12.97 with two formulations (groups L and R, respectively) of hexaflumuron and a vaccine formulation without hexaflumuron (control). […] The vaccinated fish was transferred to sea water on 09.01.98; • Figure 8 summarises the trial of Example 8 where salmon smolts were injected with 9 different active substances on 08.07.98. Only results for Moxidectin (Mox.), Lufenuron (Luf.) and hexaflumuron in Apoject 1-Fural (Hex.Apo) and in animal oil (Hex.oil) are shown, and • Figure 9 summarises the trial described in Example 10 where salmon were injected on 03.12.97 with 3 different formulations of hexaflumuron (Hexa 1, Hexa 2 and Hexa 3). The fish were transferred to sea water at T0.\nAbout 400 Atlantic salmon (Salmo salar) of an average weight of 80 grams were divided into four groups of 100 fish in each. One group was given an oral treatment of 5.6 mg hexaflumuron per kg fish each day for 7 days before sea transfer. Group two was given a bath treatment with a dosage of 5 ppm (mg/l) hexaflumuron for 30 minutes with a formulation containing 10% hexaflumuron. Group three was given oral treatment with a daily dosage of 10 mg teflubenzuron per kg fish for 7 days, while the last group remained untreated. […] Every third week, lice from 10 fish in each cage were counted to assess if there was a difference in the number of lice between the cages. […]"}, "sea lice [3]": {"tested_on": "sea lice", "test": "Oral or bath treatment in freshwater before sea transfer, sea lice counts after natural infection (Example 5)", "format": "in vivo, sea trout (Salmo trutta)", "settings": "bath treatment 2, 5 and 8 weeks after sea transfer", "protocol": "as §1, with “23.10.97. T1 = 3 weeks post end of treatment, T2 = 5 weeks post end of treatment, T3 = 9 weeks post end of treatment, T4 = 12 weeks post end of treatment; • Figure 6 relates to the trial in Example 6 at time points 4-6, with the same trial parameters as for Figure 5.” for “23.10.97.”\nAbout 300 sea trout (Salmo trutta) of an average weight of 160 grams were divided into three groups of 100 fish each. […] Lice from 6-10 fish from each cage were counted every third week to assess whether there was any difference in the number of lice between the cages. […]"}, "sea lice [4]": {"tested_on": "sea lice", "test": "Injection of 9 active substances, protective effect against sea lice (Example 8)", "format": "in vivo, salmon smolt", "protocol": "as §2\nIn this trial 9 different active substances were tested for protective effect against sea lice. 1,200 salmon smolt were, prior the start of the trial, vaccinated with a commercial vaccine, ALPHA JECT 5100.\nOne week after sea water transfer the salmon was divided into 12 groups and injected with different formulations of the 9 different active substances. In parallel with the 12 groups, a 13th group comprising 50 fish of the same origin and size was injected with a saline (PBS) solution without active substance. This group served as negative control/reference group in respect of sea lice infestations. The groups were marked by fin cutting and distributed randomly into 3 cages.\nThe active substances that were used as injection were hexaflumuron, buprofezin, diflubenzuron, fluazuron, lufenuron, ivermectin, doramectin, moxidectin and milbemycin oxime, respectively. All the fish were injected with 0.2 ml of the various injection formulations. Hexaflumuron, buprofezin, fluazuron, lufenuron and diflubenzuron were administered at a dosage of about 50 mg/kg whereas ivermectin, doramectin and moxidectin were administered at a dosage of 0.2 mg/kg (recommended dosage for mammals). […]"}, "sea lice [5]": {"tested_on": "sea lice", "test": "Oral treatment (coated feed / Akvaletter) of naturally sea lice infected salmon in minicages (Example 2)", "format": "in vivo, Atlantic salmon (Salmo salar)", "settings": "fluazuron groups, 9.0-12.0 mg per day, 7 days", "protocol": "as §2, with “T0. […]” for “T0.”"}}}
{"compound": "CC1(C)[C@H](C(=O)O[C@H](C#N)c2cccc(Oc3ccccc3)c2)[C@@H]1C=C(Br)Br", "note": "[deltamethrin, reference compound]", "values": [{"measurement": "bath treatment of control fish to reduce the number of pre-adult lice", "setting": "sea lice [1]", "value": "successful"}, {"measurement": "bath treatment of control and teflubenzuron groups, number of lice", "setting": "sea lice [2]; bath treatment after T4", "value": "successful"}, {"measurement": "bath treatment of control fish, number of lice", "setting": "sea lice [3]", "value": "successful"}]}
{"compound": "O=C(NC(=O)c1c(F)cccc1F)Nc1ccc(Cl)cc1", "note": "[diflubenzuron, reference compound]", "values": [{"measurement": "protection against new establishments by sea lice", "setting": "sea lice [4]; summary statement referring to Example 8", "value": "do not protect"}]}
{"compound": "O=C(NC(=O)c1c(F)cccc1F)Nc1ccc(Cl)c(Oc2ncc(C(F)(F)F)cc2Cl)c1", "note": "[fluazuron, reference compound]", "values": [{"measurement": "reduction as compared to the control group", "setting": "sea lice [5]", "value": 25, "unit": "%"}]}
{"compound": "O=C(NC(=O)c1c(F)cccc1F)Nc1cc(Cl)c(OC(F)(F)C(F)C(F)(F)F)cc1Cl", "note": "(centres unmarked) [lufenuron, reference compound]", "values": [{"measurement": "protection against sea lice", "setting": "sea lice [4]; T2, 40 days after injection, hexaflumuron, lufenuron about 50 mg/kg, moxidectin 0.2 mg/kg", "value": "showed protection"}, {"measurement": "lice on average", "setting": "sea lice [4]; T3, 70 days after injection, formulated in Apoject 1-Fural, about 50 mg/kg, control group 5.6", "value": 0.6}, {"measurement": "good protection against lice until T5, time after injection", "setting": "sea lice [4]; lufenuron in Apoject 1-Fural, about 50 mg/kg", "value": 128, "unit": "days"}, {"measurement": "protection following injection", "setting": "sea lice [4]; other active substances, summary of trial", "value": "good protection for an extended period of time"}]}
{"compound": "O=C(NC(=O)c1c(F)cccc1F)Nc1cc(Cl)c(F)c(Cl)c1F", "note": "[teflubenzuron]", "values": [{"measurement": "number of lice compared with untreated control group", "setting": "sea lice [2]; oral 10 mg teflubenzuron per kg fish daily for 7 days, at each assessment", "value": "same number of lice as the untreated control group"}, {"measurement": "protection against new establishments by sea lice", "setting": "sea lice [2]; summary statement referring to Example 6", "value": "do not protect"}]}
